From patent US20230190728A1, “NEW THERAPEUTIC USES OF COMPOUNDS” (PROXIMAGEN, LLC, priority 2020, published 2023)

Test system: male C57BI/6 mice
Assay: LPS-Induced Pulmonary Inflammation Study
Format: in vivo
Details: for average lavage TNFα: lavage supernatant, ELISA
Method: This study was to test the efficacy of orally administered compounds as disclosed herein to reduce LPS-induced inflammatory cell infiltration of the lungs, and was carried out in male C57BI/6 mice.
Day 11: Groups 1 and 2 were administered 10% HP-β-CD. Group 3: 7.59 mg dexamethasone 21-phosphate disodium salt (Sigma, Cat. D1159, lot 88H1020, SF 1.316) was dissolved in […] HP-β-CD to prepare a 0.2 mg/mL solution. Group 4: 1 mg Example 7 was dissolved in 4.5 mL HP-β-CD and 7 µL 1 M HCI (MP Biomedicals, Cat. 194055, lot 3956H) with alternating sonication and vortexing. The pH was adjusted by addition of 5 µL 1 M NaOH and the volume brought up to 5 mL with 0.488 mL HP-β-CD to yield a 0.2 mg/mL solution. Group 5: 3 mg Example 7 was dissolved in 4.5 mL HP-β-CD and 20 µL 1 M HCI with alternating sonication and vortexing. The pH was adjusted by addition of 16 µL 1 M NaOH and the volume brought up to 5 mL with 0.464 mL HP-β-CD to yield a 0.6 mg/ mL solution. Group 6: 10 mg Example 7 was dissolved in 4.5 mL HP-β-CD and 66 µL 1 M HCI with alternating sonication and vortexing. The pH was adjusted by addition of 53 µL 1 M NaOH and the volume brought up to 5 mL with 0.381 mL HP-β-CD to yield a 2 mg/mL solution.
25.7 mg lipopolysaccharides (LPS) from E. coli strain 055:B5 (Sigma, Cat. L2880, lot 025M4040V) was dissolved in 2.57 mL sterile saline (Hospira, lot 56-836-FW) to prepare a 10 mg/mL solution.
The mice were numbered, weighed, and dosed orally at 10 mL/kg as in Table 5.
An hour later, the mice were anesthetized, a midline incision was made in the neck, the muscle layers separated by blunt dissection, and 2 mL/kg LPS (20 mg/kg) injected into the trachea (Groups 2-6). The incision was closed with wound clips and the mice returned to cages. Group 1 received 2 mL/kg saline.
Six hours after LPS/saline injection, the mice were anesthetized, the wound clips removed, the trachea was cannulated with a 23 G needle blunt, and the lungs lavaged eight times with 0.5 mL heparinized saline. The lavage was pooled, gently inverted, and a sample retained for white blood cell (WBC) counts and differential analysis. The remainder of the lavage was centrifuged, the supernatants dispensed to one aliquot in labelled Eppendorf tubes which were stored at -80° C. The carcasses were disposed of appropriately.
Day 14: The aliquot of lung lavage supernatant was equilibrated to room temperature, diluted 1:2 and assayed for TNFα by ELISA (R&D Systems, Cat. MTA00B, lot 332141).

[1] = 2 mg/kg oral, one hour pre-treatment (Group 4), did not reach statistical significance
[2] = 6 mg/kg oral, one hour pre-treatment (Group 5)
[3] = 20 mg/kg oral, one hour pre-treatment (Group 6)

CS(=O)(=O)N1CCN(c2ccc(-c3nc4ccncc4n3-c3ccc(F)cc3)cn2)CC1 [Example 7, 1-{5-[3-(4-Fluorophenyl)-3H-Imidazo[4,5-C]Pyridin-2-Yl]Pyridin-2-Yl}-4-Methanesulfonylpiperazine]
reduction in infiltrating inflammatory cells [1]: 3%
reduction in lavage TNFα content [1]: 10%
reduction in neutrophils in the lavage fluid [1]: 27%
reduction in neutrophils in the lavage fluid (6 mg/kg oral, one hour pre-treatment): 97%
reduction in infiltrating inflammatory cells [2]: 70%
reduction in lavage TNFα content [2]: 65%
reduction in neutrophils in the lavage fluid (20 mg/kg oral, one hour pre-treatment): 97%
reduction in infiltrating inflammatory cells [3]: 93%
reduction in lavage TNFα content [3]: 74%
effect of one hour oral pre-treatment on all measured parameters (2, 6, 20 mg/kg oral prior to LPS challenge, in words): significant dose-dependent reduction in all measured parameters
effect of oral pre-treatment on LPS-induced pulmonary Neutrophil infiltration (FIG. 1, in words): decreases neutrophil infiltration in lung tissue
effect of oral pre-treatment on LPS-induced pulmonary lavage TNFa content (FIG. 2, in words): decreases TNFa content in pulmonary lavage
average lavage TNFα (Group 4, 2 mg/kg oral 1 h before LPS, Mean SD): 337.00 pg/mL
Neutrophils (Group 4, 2 mg/kg oral 1 h before LPS, lung lavage 6 h after LPS, Mean SD): 583 204
average lavage TNFα (Group 5, 6 mg/kg oral 1 h before LPS, Mean SD): 132.90 pg/mL
average lavage TNFα (Group 6, 20 mg/kg oral 1 h before LPS, Mean SD): 98.87 pg/mL
